Experiments:
Test in all cases: relative viability (nuclei count vs DMSO), 5 days (fraction); higher = more cells survive
Pazopanib + Crizotinib = compound: Cc1ccc(Nc2nccc(N(C)c3ccc4c(C)n(C)nc4c3)n2)cc1S(N)(=O)=O [Pazopanib] + C[C@@H](Oc1cc(-c2cnn(C3CCNCC3)c2)cnc1N)c1c(Cl)ccc(F)c1Cl [Crizotinib] (partner 1 µM)
Procedure, shortened: (§1)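 Lung cancer cell lines, seeded in 1536-well plates, were treated the following day by pin tool with a single drug or with five library-drug doses (not always all listed) in √10 steps on top of a fixed anchor-drug dose. Cells were fixed and nuclei stained in one step after 5 days, and nuclei were counted. Relative viability is the nuclei count for treated wells divided by that for vehicle wells, reported as medians of duplicate plates.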

Ponatinib + Palbociclib = compound: Cc1ccc(C(=O)Nc2ccc(CN3CCN(C)CC3)c(C(F)(F)F)c2)cc1C#Cc1cnc2cccnn12 [Ponatinib] + CC(=O)c1c(C)c2cnc(Nc3ccc(N4CCNCC4)cn3)nc2n(C2CCCC2)c1=O [Palbociclib] (partner 0.5 µM)
Procedure, shortened: as §1

Pazopanib + Decitabine = compound: Cc1ccc(Nc2nccc(N(C)c3ccc4c(C)n(C)nc4c3)n2)cc1S(N)(=O)=O [Pazopanib] + Nc1ncn([C@H]2C[C@H](O)[C@@H](CO)O2)c(=O)n1 [Decitabine] (partner 2 µM)
Procedure, shortened: as §1

Ponatinib + AZD7762 = compound: Cc1ccc(C(=O)Nc2ccc(CN3CCN(C)CC3)c(C(F)(F)F)c2)cc1C#Cc1cnc2cccnn12 [Ponatinib] + NC(=O)Nc1cc(-c2cccc(F)c2)sc1C(=O)N[C@H]1CCCNC1 [AZD7762] (partner 0.2 µM)
Procedure, shortened: as §1

Row | Cell Line | relative viability (Pazopanib + Crizotinib; first compound 0.01 µM) | relative viability (Pazopanib + Crizotinib; first compound 0.03162 µM) | relative viability (Pazopanib + Crizotinib; first compound 0.1 µM) | relative viability (Pazopanib + Crizotinib; first compound 0.3162 µM) | relative viability (Pazopanib + Crizotinib; first compound 1 µM) | relative viability (Ponatinib + Palbociclib; first compound 0.002 µM) | relative viability (Ponatinib + Palbociclib; first compound 0.006325 µM) | relative viability (Ponatinib + Palbociclib; first compound 0.06325 µM) | relative viability (Ponatinib + Palbociclib; first compound 0.2 µM) | relative viability (Pazopanib + Decitabine; first compound 0.01 µM) | relative viability (Pazopanib + Decitabine; first compound 0.03162 µM) | relative viability (Pazopanib + Decitabine; first compound 0.1 µM) | relative viability (Pazopanib + Decitabine; first compound 0.3162 µM) | relative viability (Pazopanib + Decitabine; first compound 1 µM) | relative viability (Ponatinib + AZD7762; first compound 0.002 µM) | relative viability (Ponatinib + AZD7762; first compound 0.006325 µM) | relative viability (Ponatinib + AZD7762; first compound 0.06325 µM) | relative viability (Ponatinib + AZD7762; first compound 0.2 µM)
1 | NCI-H2126 | 0.935 | 1.09 | 1.03 | 0.96 | 1.03 | 0.365 | 0.34 | 0.374 | 0.333 | 0.517 | 0.59 | 0.614 | 0.561 | 0.643 | 0.978 | 0.965 | 1.09 | 0.998
2 | LXF-289 | 0.851 | 0.829 | 0.801 | 0.782 | 0.824 | 0.606 | 0.613 | 0.6 | 0.611 | 0.395 | 0.351 | 0.39 | 0.373 | 0.381 | 1.03 | 1.13 | 1.19 | 1.1
3 | NCI-H3122 | 0.263 | 0.247 | 0.273 | 0.278 | 0.348 | 0.194 | 0.186 | 0.213 | 0.203 | 0.516 | 0.407 | 0.474 | 0.449 | 0.459 | 0.846 | 0.903 | 1.05 | 0.924
4 | NCI-H1755 | 0.817 | 0.847 | 0.962 | 0.844 | 0.857 | 0.419 | 0.44 | 0.413 | 0.369 | 0.718 | 0.709 | 0.742 | 0.773 | 0.783 | 0.409 | 0.379 | 0.381 | 0.362
5 | HCC-78 | 0.366 | 0.354 | 0.349 | 0.358 | 0.383 | 0.422 | 0.528 | 0.418 | 0.471 | – | 0.729 | 0.648 | 0.691 | 0.818 | 0.52 | 0.537 | 0.669 | 0.647
6 | LOU-NH91 | 0.726 | 0.731 | 0.711 | 0.757 | 0.761 | 0.587 | 0.531 | 0.528 | 0.549 | 0.808 | 0.78 | 0.828 | 0.828 | 0.769 | 0.744 | 0.779 | 0.801 | 0.682
7 | NCI-H322M | 0.922 | 0.924 | 0.784 | 0.893 | 0.844 | 0.524 | 0.501 | 0.501 | 0.471 | 0.696 | 0.748 | 0.71 | 0.8 | 0.754 | 0.566 | 0.483 | 0.543 | 0.448
8 | HCC-827 | 0.999 | 0.976 | 0.906 | 0.902 | 0.922 | 0.537 | 0.483 | 0.533 | 0.497 | 0.333 | 0.322 | 0.293 | 0.355 | 0.348 | 0.185 | 0.216 | 0.182 | 0.253
9 | NCI-H1975 | 0.888 | 1.02 | 0.991 | 0.964 | 0.926 | 0.427 | 0.557 | 0.642 | 0.537 | 0.374 | 0.373 | 0.394 | 0.401 | 0.374 | 0.599 | 0.706 | 0.726 | 0.615
10 | NCI-H1651 | 0.809 | 0.775 | 0.822 | 0.853 | 0.924 | 0.529 | 0.539 | 0.557 | 0.552 | 0.543 | 0.644 | 0.644 | 0.552 | 0.656 | 0.336 | 0.465 | 0.458 | 0.509
11 | NCI-H460 | 0.931 | 1.15 | 0.849 | 1 | 0.963 | 0.218 | 0.212 | 0.223 | 0.177 | 0.561 | 0.513 | 0.551 | 0.488 | 0.552 | 0.478 | 0.552 | 0.564 | 0.576
12 | LCLC-103H | 0.968 | 1.03 | 1.14 | 1.06 | 1.24 | 0.464 | 0.517 | 0.491 | 0.431 | 0.653 | 0.708 | 0.735 | 0.682 | 0.679 | 0.699 | 0.809 | 0.734 | 0.753
13 | LCLC-97TM1 | – | 0.309 | 0.277 | 0.297 | 0.427 | 0.233 | 0.239 | 0.252 | 0.221 | – | 0.229 | 0.247 | 0.223 | 0.237 | 0.141 | 0.264 | 0.289 | 0.28
14 | NCI-H838 | 0.821 | 0.951 | 0.982 | 0.912 | 1.08 | 0.216 | 0.234 | 0.219 | 0.21 | 0.458 | 0.462 | 0.507 | 0.414 | 0.523 | 0.899 | 0.935 | 0.95 | 0.774
15 | NCI-H1355 | – | 0.965 | 1.08 | 0.982 | 1.05 | 0.43 | 0.432 | 0.492 | 0.439 | 0.355 | 0.314 | 0.367 | 0.358 | 0.386 | 0.696 | 0.742 | 0.829 | 0.717
16 | HOP-62 | 0.974 | 0.68 | – | 0.946 | 0.948 | 0.378 | 0.374 | 0.334 | 0.376 | 0.208 | 0.238 | 0.228 | 0.288 | 0.196 | 0.643 | 0.417 | 0.831 | 0.439
17 | NCI-H2085 | 0.952 | 0.968 | 0.911 | 0.919 | 0.935 | 0.466 | 0.458 | 0.509 | 0.509 | 0.573 | 0.508 | 0.555 | 0.602 | 0.581 | 0.962 | 0.944 | 0.909 | 0.814
